These are literature values, as cited in patent US7173016B2, “Composition and method for treating graft-versus-host disease” (Mayne Pharma (USA) Inc., priority 2001, dated 2007).

The conditions of the series: acid-catalyzed glycosidic cleavage.

For `OC[C@H]1O[C@@H](n2cnc3c2NC=NC[C@H]3O)C[C@@H]1O` [pentostatin, 2′-deoxycoformycin], the acid stability result was “highly acid-labile”.
